Results from patent publication US20240122178A1, “CAFFEIC ACID-BASED COMPOSITE MATERIAL AND PREPARATION METHOD THEREOF” (ZHEJIANG UNIVERSITY, priority 2021, published 2024).

Assay: caffeic acid loading rate of carrier incubated with caffeic acid solution in ethanol
Format: physicochemical
Details: optimal loading conditions: molar ratio γ-cyclodextrin to caffeic acid 1:64, loading time 900 minutes, 40° C.
Procedure: In one embodiment, under the conditions of reaction temperature of 40° C. and reaction time of 900 minutes, the effects of different ratios of the cyclodextrin metal-organic framework material to caffeic acid (a molar ratio of γ-cyclodextrin in the cyclodextrin metal-organic framework material to caffeic acid is 1:4, 1:8, 1:32, 1:64 and 1:128, respectively) on the caffeic acid loading rate are compared. From the results, it can be seen that when the molar ratio of γ-cyclodextrin to caffeic acid in the cyclodextrin metal-organic framework composite is 1:4, the caffeic acid loading rate […]; with the increase of caffeic acid dosage, the caffeic acid loading rate gradually increases, and the increase of the loading rate is no longer obvious after increasing to 1:64. Therefore, the molar ratio of γ-cyclodextrin in the cyclodextrin metal-organic framework material to caffeic acid is selected from 1:4 to 1:128, further from 1:32 to 1:128, further from […], still further from 1: 60-70, and most preferably is 1:64.
In one embodiment, the effects of different incubating time (10, 20, 60, 180, 360, 720, 900, 2160 minutes) on the caffeic acid loading rate are compared under the conditions: the molar ratio of γ-cyclodextrin in the cyclodextrin metal-organic framework material to caffeic acid being 1:64 and the reaction temperature being 40° C. […]

OC[C@H]1O[C@@H]2O[C@H]3[C@H](O)[C@@H](O)[C@@H](O[C@H]4[C@H](O)[C@@H](O)[C@@H](O[C@H]5[C@H](O)[C@@H](O)[C@@H](O[C@H]6[C@H](O)[C@@H](O)[C@@H](O[C@H]7[C@H](O)[C@@H](O)[C@@H](O[C@H]8[C@H](O)[C@@H](O)[C@@H](O[C@H]9[C@H](O)[C@@H](O)[C@@H](O[C@H]1[C@H](O)[C@H]2O)O[C@@H]9CO)O[C@@H]8CO)O[C@@H]7CO)O[C@@H]6CO)O[C@@H]5CO)O[C@@H]4CO)O[C@@H]3CO [γ-cyclodextrin]
caffeic acid loading rate: 7.28%
